Experimental data from US4906565A, “Method for the selective detection of microbial nucleotides” (Minnesota Mining and Manufacturing Company, priority 1986, dated 1990).
Values joined by “and” are separate entries in the source; they are usually repeats but may differ in a detail not shown here. Identical values can stand only once.

Experiments:
Assay type in all cases: biochemical
glycerokinase = assay: Inhibition of glycerokinase (protection of ATP), bioluminescent ATP assay in buffer; conditions: for RLU 5 min.: 5 min. after glycerol; for RLU 10 min.: 10 min. after glycerol; for RLU 15 min.: 15 min. after glycerol; for RLU 0 min.: before glycerol added
Experimental: Assay: Glycerol was added last to the samples to initiate the enzyme's activity. Before glycerol was added a 50 μl aliquot was taken from all samples. ATP levels in those aliquots (expressed in RLU) were determined as time zero values. Next glycerol was added to the mixtures and further 50 μl aliquots were taken at 5, 10, and 15 minutes. ATP in all aliquots was measured by bioluminescent means as described. Results:
(§1) Assay: Glycerol was added last to the samples to initiate the enzyme's activity. Before glycerol was added a 50 μl aliquot was taken from all samples as time zero. Next glycerol was added to the samples and after 5, 10 and 15 minutes, 50 μl aliquots were again taken. ATP in all aliquots was measured as described.
as §1, with “At” for “Next glycerol was added to the samples and after”, “minutes after addition of glycerol further” for “minutes,”, “taken from the samples.” for “again taken.”

firefly luciferase [1] = target: T1, firefly luciferase (Photinus pyralis, UniProt P08659); assay: Effect of inhibitor on the bioluminescent assay of ATP
T1 construct: purchased Lumac/3M Lumit PM
Experimental: Assay: from each sample triplicate 100 μl aliquots were taken. In those aliquots ATP was measured as described.
Assay: from each sample triplicate 100 μl aliquots were taken. ATP in those aliquots was measured as described.
Assay: From each sample triplicate 100 μl aliquots were taken and ATP was measured as described.
Protocol: Eight samples were prepared using materials described above and previously, as shown in TABLE 7-1 and incubated for various periods of time (i.e., 0, 5, 10 and […]) before aliquots were taken and assayed as described.
Protocol: Increasing concentrations of hexokinase, with and without PCMPSA were prepared according to TABLE 8-1 using materials described above and previously.

firefly luciferase [2] = target: T1, firefly luciferase; assay: as above; conditions: for RLU mean / RLU, triplicate aliquots 1, 2, 3: no kinase
[3] = PCMB 0.01 mM, glycerokinase 1.6 U/ml
[4] = PCMB 0.05 mM, glycerokinase 1.6 U/ml
[5] = PCMB 0.1 mM, glycerokinase 1.6 U/ml
[6] = PCMB 0.5 mM, glycerokinase 1.6 U/ml
[7] = PCMB 1 mM, glycerokinase 1.6 U/ml
[8] = PCMB 2 mM, glycerokinase 1.6 U/ml
[9] = PCMB 0.01 mM, ATP in buffer, no kinase
[10] = DNFB 0.0827 mM, ATP in Lumit buffer
[11] = DNFB 0.827 mM, ATP in Lumit buffer
[12] = DNFB 8.27 mM, ATP in Lumit buffer

T1 sequence (P08659 whole entry): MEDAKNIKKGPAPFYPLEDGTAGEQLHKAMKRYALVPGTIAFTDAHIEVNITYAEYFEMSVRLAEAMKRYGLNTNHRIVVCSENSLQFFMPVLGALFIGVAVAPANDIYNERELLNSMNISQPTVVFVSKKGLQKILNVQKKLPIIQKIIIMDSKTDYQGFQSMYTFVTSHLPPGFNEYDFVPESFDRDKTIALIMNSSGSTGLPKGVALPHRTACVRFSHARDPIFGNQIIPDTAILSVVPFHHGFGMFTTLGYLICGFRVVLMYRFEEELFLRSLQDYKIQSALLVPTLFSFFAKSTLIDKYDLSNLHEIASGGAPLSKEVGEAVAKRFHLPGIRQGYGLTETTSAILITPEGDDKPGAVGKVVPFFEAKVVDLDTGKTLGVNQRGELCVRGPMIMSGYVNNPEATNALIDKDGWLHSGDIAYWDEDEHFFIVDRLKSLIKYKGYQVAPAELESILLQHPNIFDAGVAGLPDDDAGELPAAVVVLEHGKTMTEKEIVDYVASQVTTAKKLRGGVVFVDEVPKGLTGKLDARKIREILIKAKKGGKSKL

CCN1C(=O)C=CC1=O [NEM, N-ethylmaleimide]
RLU 5 min. (glycerokinase; NEM 4.10 mM, glycerokinase): 7275 RLU
RLU 10 min. (glycerokinase; NEM 4.10 mM, glycerokinase): 6398 RLU
RLU 15 min. (glycerokinase; NEM 4.10 mM, glycerokinase): 5922 RLU
RLU 0 min. (glycerokinase; NEM 4.10 mM, glycerokinase): 7635 RLU
RLU 5 min. (glycerokinase; NEM 8.14 mM, glycerokinase): 7130 RLU
RLU 10 min. (glycerokinase; NEM 8.14 mM, glycerokinase): 6623 RLU
RLU 15 min. (glycerokinase; NEM 8.14 mM, glycerokinase): 6365 RLU
RLU 0 min. (glycerokinase; NEM 8.14 mM, glycerokinase): 7742 RLU
RLU 5 min. (glycerokinase; NEM 12.1 mM, glycerokinase): 7413 RLU
RLU 10 min. (glycerokinase; NEM 12.1 mM, glycerokinase): 6812 RLU
RLU 15 min. (glycerokinase; NEM 12.1 mM, glycerokinase): 6997 RLU
RLU 0 min. (glycerokinase; NEM 12.1 mM, glycerokinase): 7660 RLU
RLU 5 min. (glycerokinase; NEM 19.8 mM, glycerokinase): 7138 RLU
RLU 10 min. (glycerokinase; NEM 19.8 mM, glycerokinase): 6547 RLU
RLU 15 min. (glycerokinase; NEM 19.8 mM, glycerokinase): 6820 RLU
RLU 0 min. (glycerokinase; NEM 19.8 mM, glycerokinase): 7406 RLU
RLU 5 min. (glycerokinase; NEM 16. mM, glycerokinase): 7192 RLU
RLU 10 min. (glycerokinase; NEM 16. mM, glycerokinase): 7002 RLU
RLU 15 min. (glycerokinase; NEM 16. mM, glycerokinase): 6962 RLU
RLU 0 min. (glycerokinase; NEM 16. mM, glycerokinase): 7199 RLU
inhibition of glycerokinase (conclusion in words) (glycerokinase; each NEM concentration tested (4.10-19.8 mM)): seems to be inhibited
% of control (firefly luciferase [1]; NEM 19.8 mM, control = 0 mM NEM): 86.3%
RLU mean (firefly luciferase [2]; NEM 4.10 mM, ATP in buffer): 14410 RLU
RLU, triplicate aliquots 1, 2, 3 (firefly luciferase [2]; NEM 4.10 mM, ATP in buffer): 14387 RLU and 14794 RLU and 14051 RLU
% of control (firefly luciferase [2]; NEM 4.10 mM, control = 0 mM NEM): 97.6%
RLU mean (firefly luciferase [2]; NEM 8.14 mM, ATP in buffer): 14608 RLU
RLU, triplicate aliquots 1, 2, 3 (firefly luciferase [2]; NEM 8.14 mM, ATP in buffer): 14401 RLU and 14667 RLU and 14756 RLU
% of control (firefly luciferase [2]; NEM 8.14 mM, control = 0 mM NEM): 99.0%
RLU mean (firefly luciferase [2]; NEM 12.1 mM, ATP in buffer): 13737 RLU
RLU, triplicate aliquots 1, 2, 3 (firefly luciferase [2]; NEM 12.1 mM, ATP in buffer): 14139 RLU and 13794 RLU and 13279 RLU
% of control (firefly luciferase [2]; NEM 12.1 mM, control = 0 mM NEM): 93.1%
RLU mean (firefly luciferase [2]; NEM 16.0 mM, ATP in buffer): 13212 RLU
RLU, triplicate aliquots 1, 2, 3 (firefly luciferase [2]; NEM 16.0 mM, ATP in buffer): 12750 RLU and 13438 RLU and 13448 RLU
% of control (firefly luciferase [2]; NEM 16.0 mM, control = 0 mM NEM): 89.5%
RLU mean (firefly luciferase [2]; NEM 19.8 mM, ATP in buffer): 12747 RLU
RLU, triplicate aliquots 1, 2, 3 (firefly luciferase [2]; NEM 19.8 mM, ATP in buffer): 13534 RLU and 12596 RLU and 12111 RLU
RLU mean (firefly luciferase [2]; NEM .414 mM, ATP in buffer): 14962 RLU
RLU, triplicate aliquots 1, 2, 3 (firefly luciferase [2]; NEM .414 mM, ATP in buffer): 15071 RLU and 15081 RLU and 14735 RLU
% of control (firefly luciferase [2]; NEM .414 mM, control = 0 mM NEM): 101.4%
interference with the bioluminescent assay of ATP (conclusion in words) (firefly luciferase [2]; NEM concentrations of Example 5): interferes only moderately, if at all

O=C(O)c1cc[c]([Hg][Cl])cc1 [PCMB, p-chloromercuribenzoic acid]
RLU 5 min. (glycerokinase; [3]): 9121 RLU
RLU 10 min. (glycerokinase; [3]): 8982 RLU
RLU 15 min. (glycerokinase; [3]): 3913 RLU
RLU 0 min. (glycerokinase; [3]): 9065 RLU
RLU 5 min. (glycerokinase; [4]): 9048 RLU
RLU 10 min. (glycerokinase; [4]): 8727 RLU
RLU 15 min. (glycerokinase; [4]): 9049 RLU
RLU 0 min. (glycerokinase; [4]): 9003 RLU
RLU 5 min. (glycerokinase; [5]): 9560 RLU
RLU 10 min. (glycerokinase; [5]): 9253 RLU
RLU 15 min. (glycerokinase; [5]): 9421 RLU
RLU 0 min. (glycerokinase; [5]): 9499 RLU
RLU 5 min. (glycerokinase; [6]): 8800 RLU
RLU 10 min. (glycerokinase; [6]): 8617 RLU
RLU 15 min. (glycerokinase; [6]): 9028 RLU
RLU 0 min. (glycerokinase; [6]): 9041 RLU
RLU 5 min. (glycerokinase; [7]): 9437 RLU
RLU 10 min. (glycerokinase; [7]): 9329 RLU
RLU 15 min. (glycerokinase; [7]): 9591 RLU
RLU 0 min. (glycerokinase; [7]): 8802 RLU
RLU 5 min. (glycerokinase; [8]): 7245 RLU
RLU 10 min. (glycerokinase; [8]): 7905 RLU
RLU 15 min. (glycerokinase; [8]): 7568 RLU
RLU 0 min. (glycerokinase; [8]): 7987 RLU
inhibition of glycerokinase (conclusion in words) (glycerokinase; PCMB final concentration 0.01 mM): sufficiently inhibited
inhibition of glycerokinase (conclusion in words) (glycerokinase; PCMB, Samples 1-6 (0.01-2 mM)): very effective inhibitor of glycerokinase
RLU mean (firefly luciferase [1]; [9]): 17887 RLU
RLU, triplicate aliquots 1, 2, 3 (firefly luciferase [1]; [9]): 17959 RLU and 18219 RLU and 17484 RLU
% of control (firefly luciferase [1]; PCMB 0.01 mM, control = 0 mM PCMB): 97%
interference with the bioluminescent assay (conclusion in words) (firefly luciferase [1]; PCMB 0.01-1mM): do not significantly interfere
RLU, triplicate aliquots 1, 2, 3 (firefly luciferase [1]; PCMB 10 mM, ATP in buffer, no kinase): 11 RLU and 10 RLU
RLU mean (firefly luciferase [2]; PCMB 0.05 mM, ATP in buffer): 17508 RLU
RLU, triplicate aliquots 1, 2, 3 (firefly luciferase [2]; PCMB 0.05 mM, ATP in buffer): 17984 RLU and 17423 RLU and 17118 RLU
% of control (firefly luciferase [2]; PCMB 0.05 mM, control = 0 mM PCMB): 95%
RLU mean (firefly luciferase [2]; PCMB 0.1 mM, ATP in buffer): 18246 RLU
RLU, triplicate aliquots 1, 2, 3 (firefly luciferase [2]; PCMB 0.1 mM, ATP in buffer): 17914 RLU and 18720 RLU and 18505 RLU
% of control (firefly luciferase [2]; PCMB 0.1 mM, control = 0 mM PCMB): 99%
RLU mean (firefly luciferase [2]; PCMB 0.5 mM, ATP in buffer): 18142 RLU
RLU, triplicate aliquots 1, 2, 3 (firefly luciferase [2]; PCMB 0.5 mM, ATP in buffer): 18190 RLU and 18413 RLU and 17824 RLU
% of control (firefly luciferase [2]; PCMB 0.5 mM, control = 0 mM PCMB): 99%
RLU mean (firefly luciferase [2]; PCMB 1 mM, ATP in buffer): 13696 RLU
RLU, triplicate aliquots 1, 2, 3 (firefly luciferase [2]; PCMB 1 mM, ATP in buffer): 14576 RLU and 13556 RLU and 12956 RLU
% of control (firefly luciferase [2]; PCMB 1 mM, control = 0 mM PCMB): 75%
RLU mean (firefly luciferase [2]; PCMB 5 mM, ATP in buffer): 10 RLU
RLU, triplicate aliquots 1, 2, 3 (firefly luciferase [2]; PCMB 5 mM, ATP in buffer): 11 RLU and 10 RLU and 9 RLU
% of control (firefly luciferase [2]; PCMB 5 mM, control = 0 mM PCMB): < 1%
RLU mean (firefly luciferase [2]; PCMB 10 mM, ATP in buffer): 10 RLU
% of control (firefly luciferase [2]; PCMB 10 mM, control = 0 mM PCMB): < 1%

O=[N+]([O-])c1ccc(F)c([N+](=O)[O-])c1 [DNFB]
inhibition of glycerokinase (conclusion in words) (glycerokinase; 0.0827 mM DNFB): not effectively inhibited
inhibition of glycerokinase (conclusion in words) (glycerokinase; 0.27 mM DNFB (so in the source)): effectively inhibited
inhibition of glycerokinase (conclusion in words) (glycerokinase; 8.27 mM DNFB (so in the source)): moderately inhibited
RLU 5 min. (glycerokinase; DNFB 0.0827 mM, glycerokinase): 11 RLU
RLU 10 min. (glycerokinase; DNFB 0.0827 mM, glycerokinase): 11 RLU
RLU 15 min. (glycerokinase; DNFB 0.0827 mM, glycerokinase): 18 RLU
RLU 0 min. (glycerokinase; DNFB 0.0827 mM, glycerokinase): 7025 RLU
RLU 5 min. (glycerokinase; DNFB 0.827 mM, glycerokinase): 1585 RLU
RLU 10 min. (glycerokinase; DNFB 0.827 mM, glycerokinase): 1498 RLU
RLU 15 min. (glycerokinase; DNFB 0.827 mM, glycerokinase): 1618 RLU
RLU 0 min. (glycerokinase; DNFB 0.827 mM, glycerokinase): 7402 RLU
RLU 5 min. (glycerokinase; DNFB 8.27 mM, glycerokinase): 7785 RLU
RLU 10 min. (glycerokinase; DNFB 8.27 mM, glycerokinase): 7965 RLU
RLU 15 min. (glycerokinase; DNFB 8.27 mM, glycerokinase): 7968 RLU
RLU 0 min. (glycerokinase; DNFB 8.27 mM, glycerokinase): 8002 RLU
% of control (firefly luciferase [1]; DNFB 0.0827 mM, control = ethanol, 0 mM DNFB): 106%
interference with the bioluminescent assay of ATP by firefly luciferase (conclusion in words) (firefly luciferase [1]; DNFB concentrations of Example 3): does not interfere
RLU mean (firefly luciferase [2]; [10]): 15429 RLU
RLU, triplicate aliquots 1, 2, 3 (firefly luciferase [2]; [10]): 15157 RLU and 15625 RLU and 15507 RLU
RLU mean (firefly luciferase [2]; [11]): 15914 RLU
RLU, triplicate aliquots 1, 2, 3 (firefly luciferase [2]; [11]): 16060 RLU and 15753 RLU and 15929 RLU
% of control (firefly luciferase [2]; DNFB 0.827 mM, control = ethanol, 0 mM DNFB): 110%
RLU mean (firefly luciferase [2]; [12]): 14784 RLU
RLU, triplicate aliquots 1, 2, 3 (firefly luciferase [2]; [12]): 14498 RLU and 14780 RLU and 15076 RLU
% of control (firefly luciferase [2]; DNFB 8.27 mM, control = ethanol, 0 mM DNFB): 102.2%
